This assay concerns BDF1 mice, P388 leukemia ip, median survival T/C. Nature of the assay: NCI In Vivo Anticancer Drug Screen. Data for tumor model P388 Leukemia (intraperitoneal) in B6D2F1 (BDF1) mice. The following applies: endpoint: median survival time, higher = longer survival. In a few lines:
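Transplantable tumour in mice; compound vs vehicle dosing; survival scored; ratio of treated to control reported.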

Setting [1] is: dose: 50.0 mg/kg/injection, schedule: Q01DX009 (ip), vehicle: Klucel (hydroxypropylcellulose) (HPC).
The mark [2] stands for this setting: dose: 100.0 mg/kg/injection, schedule: Q01DX009 (ip), vehicle: Klucel (hydroxypropylcellulose) (HPC).
The mark [3] stands for this setting: dose: 200.0 mg/kg/injection, schedule: Q01DX009 (ip), vehicle: Klucel (hydroxypropylcellulose) (HPC).
The mark [4] stands for this setting: dose: 6.25 mg/kg/injection, schedule: Q01DX009 (ip), vehicle: saline with Tween-80.
Where [5] appears, read: dose: 12.5 mg/kg/injection, schedule: Q01DX009 (ip), vehicle: saline with Tween-80.
[6] abbreviates: dose: 100.0 mg/kg/injection, schedule: Q01DX009 (ip), vehicle: saline with Tween-80.
The mark [7] stands for this setting: dose: 200.0 mg/kg/injection, schedule: Q01DX009 (ip), vehicle: saline with Tween-80.
Where [8] appears, read: dose: 400.0 mg/kg/injection, schedule: Q01DX009 (ip), vehicle: saline with Tween-80.
[9] abbreviates: dose: 50.0 mg/kg/injection, schedule: Q04DX003 (ip), vehicle: saline with Tween-80.
Where [10] appears, read: dose: 100.0 mg/kg/injection, schedule: Q04DX003 (ip), vehicle: saline with Tween-80.
Setting [11] is: dose: 100.0 mg/kg/injection, schedule: Q04DX003 (ip), vehicle: saline.
[12] abbreviates: dose: 200.0 mg/kg/injection, schedule: Q04DX003 (ip), vehicle: saline.
Where [13] appears, read: dose: 50.0 mg/kg/injection, schedule: Q01DX009 (ip), vehicle: saline with Tween-80.
Where [14] appears, read: dose: 100.0 mg/kg/injection, schedule: Q01DX001 (ip), vehicle: saline with Tween-80.
[15] abbreviates: dose: 400.0 mg/kg/injection, schedule: Q01DX001 (ip), vehicle: saline with Tween-80.
Where [16] appears, read: dose: 50.0 mg/kg/injection, schedule: Q04DX003 (ip), vehicle: saline.
[17] abbreviates: dose: 25.0 mg/kg/injection, schedule: Q01DX009 (ip), vehicle: saline with Tween-80.

Where “and” joins values, the source holds several entries; their conditions need not be identical. Identical values can stand only once. Inconclusive results and toxic doses are left out.

For the molecule `CC[C@@H]1C[C@@H]2CN3CCc4c([nH]c5ccc(OC)cc45)C(C(=O)OC)(C2)C13`, the T/C is, setting by setting: under setting [1], 108 % of control; under setting [2], 113 % of control; under setting [3], 113 % of control.
For the molecule `CCCCCCCCCCCCCC(C)NCc1ccccc1` (centres undefined), the T/C by setting is: (dose: 3.13 mg/kg/injection, schedule: Q01DX009 (ip), vehicle: saline with Tween-80) 95 % of control; under setting [4], 100 % of control; under setting [5], 100 % of control.
Consider `CCOC(=O)CCN(CCN(C)C)c1cc(O)c2c(c1O)C(=O)c1ccccc1C2=O`, for which the T/C (dose: 50.0 mg/kg/injection, schedule: Q01DX005 (ip), vehicle: saline with Tween-80) was 123 % of control.
In the case of `c1ccc(P(CCP(CCP(c2ccccc2)c2ccccc2)c2ccccc2)CCP(c2ccccc2)c2ccccc2)cc1` (centres undefined), the T/C by setting is: under setting [6], 90 % of control and 100 % of control; under setting [7], 110 % of control and 100 % of control; under setting [8], 100 % of control and 120 % of control.
For the molecule `COc1ccc2c(c1)CCC1C2CCC2(C)C(=O)OC(=O)C12` (centres undefined), the T/C was 91 % of control (dose: 87.5 mg/kg/injection, schedule: Q01DX009 (sc), vehicle: steriod suspending solution); 100 % of control (dose: 100.0 mg/kg/injection, schedule: Q04DX003 (sc), vehicle: steriod suspending solution); 100 % of control (dose: 175.0 mg/kg/injection, schedule: Q01DX009 (sc), vehicle: steriod suspending solution); 109 % of control (dose: 200.0 mg/kg/injection, schedule: Q04DX003 (sc), vehicle: steriod suspending solution); 95 % of control (dose: 350.0 mg/kg/injection, schedule: Q01DX009 (sc), vehicle: steriod suspending solution); 95 % of control (dose: 400.0 mg/kg/injection, schedule: Q04DX003 (sc), vehicle: steriod suspending solution).
With `CCN(C(C)C)C(C)C`, the T/C (dose: 25.0 mg/kg/injection, schedule: Q04DX003 (ip), vehicle: saline with Tween-80) was 100 % of control; the T/C under setting [9] is 100 % of control; the T/C under setting [10] is 100 % of control.
With `CC1N2C3(c4ccccc4)OC(c4ccccc4)(c4ccccc43)C12c1ccccc1` (centres undefined), the T/C is, setting by setting: under setting [1], 104 % of control; under setting [2], 100 % of control; under setting [3], 89 % of control.
For the molecule `CCN(CC)CCNc1ccc(C)c2sc3ccccc3c(=O)c12` (tested in a mixture with another compound), the T/C is 100 % of control and 121 % of control (dose: 5.5 mg/kg/injection, schedule: Q01DX009 (ip), vehicle: saline); 90 % of control and 110 % of control (dose: 8.2 mg/kg/injection, schedule: Q01DX009 (ip), vehicle: saline); 122 % of control (dose: 22.0 mg/kg/injection, schedule: Q01DX009 (ip), vehicle: saline); 110 % of control (dose: 33.0 mg/kg/injection, schedule: Q01DX009 (ip), vehicle: saline); 116 % of control (dose: 35.0 mg/kg/injection, schedule: Q01DX009 (ip), vehicle: saline); 154 % of control (dose: 50.0 mg/kg/injection, schedule: Q01DX009 (ip), vehicle: saline). The T/C was 154 % of control and 180 % of control (dose: 75.0 mg/kg/injection, schedule: Q01DX009 (ip), vehicle: saline); 122 % of control (dose: 88.0 mg/kg/injection, schedule: Q04DX003 (ip), vehicle: saline); 94 % of control (dose: 100.0 mg/kg/injection, schedule: Q04DX003 (ip), vehicle: alcohol); 116 % of control under setting [11]; 111 % of control (dose: 200.0 mg/kg/injection, schedule: Q04DX003 (ip), vehicle: alcohol); 166 % of control under setting [12]. In addition, the T/C by setting is: (dose: 300.0 mg/kg/injection, schedule: Q04DX003 (ip), vehicle: saline) 95 % of control; (dose: 400.0 mg/kg/injection, schedule: Q04DX003 (ip), vehicle: alcohol) 111 % of control.
Take `CC[C@H]1CN2CCc3cc(OC)c(OC)cc3[C@@H]2C[C@@H]1C[C@H]1NCCc2cc(O)c(OC)cc21`: the T/C by setting is: (dose: 0.25 mg/kg/injection, schedule: Q01DX010 (ip), vehicle: saline) 159 % of control; (dose: 0.5 mg/kg/injection, schedule: Q01DX010 (ip), vehicle: saline) 150 % of control; (dose: 2.0 mg/kg/injection, schedule: Q01DX010 (ip), vehicle: saline) 150 % of control and 190 % of control; (dose: 8.0 mg/kg/injection, schedule: Q01DX010 (ip), vehicle: saline) 95 % of control.
On to `CCCCCCCCCC(=O)NC(C)C(O)c1ccccc1` (centres undefined), for which the T/C under setting [13] is 109 % of control, the T/C under setting [6] was 100 % of control and the T/C under setting [7] is 89 % of control.
With `Nc1nc(N)c(N=Cc2ccccc2)c(=O)[nH]1`, the T/C runs as follows: under setting [14], 108 % of control; (dose: 200.0 mg/kg/injection, schedule: Q01DX001 (ip), vehicle: saline with Tween-80) 88 % of control; under setting [15], 97 % of control.
`Cc1noc2nc[nH]c(=O)c12`: the T/C is, setting by setting: (dose: 100.0 mg/kg/injection, schedule: Q04DX002 (ip), vehicle: saline with Tween-80) 107 % of control; (dose: 200.0 mg/kg/injection, schedule: Q04DX002 (ip), vehicle: saline with Tween-80) 106 % of control; (dose: 400.0 mg/kg/injection, schedule: Q04DX002 (ip), vehicle: saline with Tween-80) 94 % of control.
Consider `O=COC1CC2CC1C1CCCC21` (centres undefined), for which the T/C is 122 % of control under setting [13]; 100 % of control under setting [16]; 109 % of control under setting [6]; 96 % of control under setting [11]; 100 % of control under setting [12].
Take `COc1ccc([C@@H]2c3cc4c(cc3C[C@H]3COC(=O)[C@@H]32)OCO4)cc1OC`: the T/C is 104 % of control under setting [4], 116 % of control under setting [5] and 121 % of control under setting [17].
Turning to `Nc1cc(=O)[nH][nH]1`, the T/C runs as follows: under setting [6], 104 % of control; under setting [7], 109 % of control; under setting [8], 122 % of control.
In the case of `O=C(Nc1ccc(NC(=O)c2ccccc2)c(Sc2ccccc2)c1Sc1ccccc1)c1ccccc1`, the T/C under setting [14] is 90 % of control and the T/C under setting [15] is 100 % of control.
With `Cc1ccc(S(=O)(=O)F)c(Cl)c1`, the T/C reads like this: (dose: 50.0 mg/kg/injection, schedule: Q01DX009 (ip), vehicle: other) 91 % of control; under setting [9], 100 % of control; (dose: 100.0 mg/kg/injection, schedule: Q01DX009 (ip), vehicle: other) 91 % of control; under setting [10], 104 % of control; (dose: 200.0 mg/kg/injection, schedule: Q01DX009 (ip), vehicle: other) 91 % of control; (dose: 200.0 mg/kg/injection, schedule: Q04DX003 (ip), vehicle: saline with Tween-80) 109 % of control.
Turning to `CCOC(=O)C1(C)CCCC1=O` (centres undefined), the T/C was 100 % of control (dose: 12.5 mg/kg/injection, schedule: Q04DX003 (ip), vehicle: saline); 95 % of control (dose: 25.0 mg/kg/injection, schedule: Q04DX003 (ip), vehicle: saline); 90 % of control under setting [16].
Regarding `CC[C@]1(O)C[C@H](OC2CC(N(C)C)C(OC3CC(O)C(O)C(C)O3)C(C)O2)c2c(cc3c(c2O)C(=O)c2c(O)ccc(O)c2C3=O)[C@H]1C(=O)OC` (some centres undefined), the T/C by setting is: (dose: 0.4 mg/kg/injection, schedule: Q01DX009 (ip), vehicle: Klucel (hydroxypropylcellulose) (HPC)) 171 % of control; (dose: 0.8 mg/kg/injection, schedule: Q01DX009 (ip), vehicle: Klucel (hydroxypropylcellulose) (HPC)) 158 % of control and 165 % of control; (dose: 1.6 mg/kg/injection, schedule: Q01DX009 (ip), vehicle: Klucel (hydroxypropylcellulose) (HPC)) 201 % of control and 222 % of control; (dose: 3.46 mg/kg/injection, schedule: Q04DX003 (ip), vehicle: other) 185 % of control; (dose: 5.76 mg/kg/injection, schedule: Q04DX003 (ip), vehicle: other) 217 % of control; (dose: 9.6 mg/kg/injection, schedule: Q04DX003 (ip), vehicle: other) 105 % of control.
Regarding `O=C(O)CSC(=S)c1ccccc1`, the T/C is 118 % of control under setting [17] and 121 % of control under setting [6].

Source of the values: PubChem BioAssay AID328 (DTP/NCI, 2004).
